The NIST ThermoML archive (doi:10.1016/j.tca.2005.10.007)

Test: xn = mol fraction of the nth substance listed
Conditions: 101 kPa, Liquid, Vibrating tube method

CC(O)CN (stereo not drawn) [1-amino-2-propanol] + O
mass density [kg/m3]
Conditions | 318.15 K | 323.15 K | 328.15 K | 333.15 K | 338.15 K | 343.15 K | 348.15 K | 353.15 K
x2 = 0.0438 | – | 938.15 | 934 | 929.82 | 925.59 | 921.33 | 917.02 | 912.66
x2 = 0.0801 | – | 939.79 | 935.65 | 931.47 | 927.26 | 923 | 918.7 | 914.34
x2 = 0.1269 | – | 942.24 | 938.11 | 933.95 | 929.74 | 925.48 | 921.19 | 916.84
x2 = 0.1584 | – | 943.75 | 939.62 | 935.46 | 931.25 | 927 | 922.71 | 918.36
x2 = 0.2003 | – | 945.98 | 941.87 | 937.7 | 933.51 | 929.26 | 924.97 | 920.63
x2 = 0.2999 | – | 951.92 | 947.82 | 943.67 | 939.48 | 935.23 | 930.93 | 926.59
x2 = 0.3498 | – | 955.13 | 951.03 | 946.88 | 942.69 | 938.45 | 934.15 | 929.81
x2 = 0.3999 | – | 958.3 | 954.21 | 950.06 | 945.87 | 941.62 | 937.32 | 932.97
x2 = 0.4499 | – | 961.75 | 957.65 | 953.5 | 949.31 | 945.06 | 940.76 | 936.4
x2 = 0.4968 | – | 965.17 | 961.07 | 956.92 | 952.72 | 948.47 | 944.16 | 939.8
x2 = 0.5122 | 970.43 | 966.38 | 962.28 | 958.13 | 953.93 | 949.68 | 945.37 | 941.01
x2 = 0.5501 | 973.11 | 969.05 | 964.95 | 960.8 | 956.6 | 952.34 | 948.03 | 943.66
x2 = 0.6001 | 977.04 | 972.99 | 968.89 | 964.74 | 960.54 | 956.29 | 951.98 | 947.61
x2 = 0.6501 | 980.76 | 976.72 | 972.63 | 968.49 | 964.3 | 960.06 | 955.76 | 951.4
x2 = 0.7 | 984.34 | 980.34 | 976.28 | 972.17 | 968.01 | 963.8 | 959.53 | 955.2
x2 = 0.7501 | 987.6 | 983.67 | 979.68 | 975.64 | 971.55 | 967.4 | 963.19 | 958.92
x2 = 0.8 | 990.02 | 986.23 | 982.39 | 978.48 | 974.51 | 970.48 | 966.38 | 962.22
x2 = 0.84 | 991.29 | 987.71 | 984.06 | 980.33 | 976.53 | 972.66 | 968.72 | 964.71
x2 = 0.88 | 991.5 | 988.22 | 984.85 | 981.39 | 977.84 | 974.2 | 970.47 | 966.66
x2 = 0.92 | 990.94 | 988.05 | 985.04 | 981.92 | 978.68 | 975.33 | 971.88 | 968.33
x2 = 0.96 | 990.01 | 987.53 | 984.91 | 982.14 | 979.24 | 976.22 | 973.07 | 969.81
